What was measured:
[1] = tested on: AVEFA; experiment: Pre-emergence herbicidal action against AVEFA; assay type: in vivo, Avena fatua; settings: 80 g/ha, pre-emergence
Method in brief: (§1)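 Visual rating at 3 weeks vs untreated pots; 0–100% scale, 100% = plants died. Treatment: aqueous WP/EC spray onto covering soil, 600–800 l/ha, 0.2% wetter, seeds in sandy loam.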

[2] = tested on: HORMU; experiment: Pre-emergence herbicidal action against HORMU; assay type: in vivo, Hordeum murinum; settings: 80 g/ha, pre-emergence
Source text: Seeds of monocotyledonous and dicotyledonous weed plants and crop plants are laid out in sandy loam soil in wood-fiber pots and covered with soil. The compounds of the invention, formulated in the form of wettable powders (WP) or as emulsion concentrates (EC), are then applied to the surface of the covering soil in the form of an aqueous suspension or emulsion at a water application rate equivalent to 600 to 800 l/ha, with addition of 0.2% wetting agent. After the treatment, the pots are placed in a greenhouse and kept under good growth conditions for the trial plants. The damage to the test plants is scored visually after a test period of 3 weeks by comparison with untreated controls (herbicidal activity in percent (%): 100% activity=the plants have died, 0% activity=like control plants). […] The tables below illustrate, in an illustrative manner, the post-emergence herbicidal action of the compounds of the invention, the herbicidal activity being stated in percent.

[3] = tested on: STEME; experiment: Pre-emergence herbicidal action against STEME; assay type: in vivo, Stellaria media
Method in brief: as §1

[4] = tested on: ECHCG; experiment: Pre-emergence herbicidal action against ECHCG; assay type: in vivo, Echinochloa crus-galli
Method in brief: as §1

[5] = tested on: SETVI; experiment: Post-emergence herbicidal action against SETVI; assay type: in vivo, Setaria viridis
Method in brief: (§2)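 Weeds in sandy loam soil received a post-emergence spray at the one-leaf stage. Compounds were applied as WP or EC in water, 600 to 800 l/ha, with 0.2% wetting agent. Activity in % was judged visually after roughly 3 weeks against untreated plants.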

[6] = tested on: ABUTH; experiment: Pre-emergence herbicidal action against ABUTH; assay type: in vivo, Abutilon theophrasti; settings: for Pre-emergence action against ABUTH (herbicidal activity): 80 g/ha, scored visually after 3 weeks vs untreated controls (100% = plants have died, 0% = like control plants); for Pre-emergence action against ABUTH (herbicidal activity in percent): dosage 20 g/ha, scored visually after 3 weeks vs untreated controls, 100% = plants have died, 0% = like control plants
Method in brief: as §1

[7] = tested on: MATIN; experiment: Pre-emergence herbicidal action against MATIN; assay type: in vivo, Matricaria inodora
Method in brief: as §1

[8] = tested on: VIOTR; experiment: Post-emergence herbicidal action against VIOTR; assay type: in vivo, Viola tricolor; settings: 20 g/ha
Method in brief: as §2

[9] = tested on: VIOTR; experiment: Pre-emergence herbicidal action against VIOTR; assay type: in vivo, Viola tricolor; settings: dosage 80 g/ha
Method in brief: as §1

[10] = tested on: ABUTH; experiment: Post-emergence herbicidal action against ABUTH; assay type: in vivo, Abutilon theophrasti; settings: visual assessment about 3 weeks after treatment vs untreated controls
Method in brief: as §2

[11] = tested on: AMARE; experiment: Post-emergence herbicidal action against AMARE; assay type: in vivo, Amaranthus retroflexus; settings: 20 g/ha, visual assessment about 3 weeks after treatment, 100% = plants have died, 0% = like control plants
Method in brief: as §2

[12] = tested on: MATIN; experiment: Post-emergence herbicidal action against MATIN; assay type: in vivo, Matricaria inodora; settings: dosage 20 g/ha
Method in brief: as §2

[13] = tested on: ALOMY; experiment: Pre-emergence herbicidal action against ALOMY; assay type: in vivo, Alopecurus myosuroides; settings: 80 g/ha, pre-emergence, scored visually after 3 weeks vs untreated controls (100% = plants have died, 0% = like control plants)
Method in brief: as §1

[14] = tested on: DIGSA; experiment: Pre-emergence herbicidal action against DIGSA; assay type: in vivo, Digitaria sanguinalis
Method in brief: as §1

[15] = tested on: ECHCG; experiment: Post-emergence herbicidal action against ECHCG; assay type: in vivo, Echinochloa crus-galli
Method in brief: as §2

[16] = tested on: ALOMY; experiment: Post-emergence herbicidal action against ALOMY; assay type: in vivo, Alopecurus myosuroides; settings: dosage 20 g/ha, visual assessment about 3 weeks after treatment vs untreated controls
Method in brief: as §2

[17] = tested on: STEME; experiment: Post-emergence herbicidal action against STEME; assay type: in vivo, Stellaria media
Method in brief: as §2

[18] = tested on: AMARE; experiment: Pre-emergence herbicidal action against AMARE; assay type: in vivo, Amaranthus retroflexus
Method in brief: as §1

[19] = tested on: DIGSA; experiment: Post-emergence herbicidal action against DIGSA; assay type: in vivo, Digitaria sanguinalis; settings: for Post-emergence action against DIGSA: 20 g/ha
Method in brief: as §2

[20] = tested on: SETVI; experiment: Pre-emergence herbicidal action against SETVI; assay type: in vivo, Setaria viridis
Method in brief: as §1

[21] = tested on: POLCO; experiment: Pre-emergence herbicidal action against POLCO; assay type: in vivo, Polygonum convolvulus; settings: dosage 80 g/ha
Method in brief: as §1

[22] = tested on: PHBPU; experiment: Post-emergence herbicidal action against PHBPU; assay type: in vivo, Pharbitis purpurea; settings: dosage 20 g/ha
Method in brief: as §2

[23] = 20 g/ha, scored visually after 3 weeks vs untreated controls, 100% = plants have died, 0% = like control plants
[24] = 80 g/ha, scored visually after 3 weeks vs untreated controls (100% = plants have died, 0% = like control plants)

SMILES	Pre-emergence action against AVEFA in % [1] [%]	Pre-emergence action against HORMU in % [2] [%]	Pre-emergence action against STEME in % ([3]; dosage 20 g/ha) [%]	Pre-emergence action against STEME in % ([3]; dosage 80 g/ha) [%]	Pre-emergence action against ECHCG in % ([4]; 80 g/ha) [%]	Pre-emergence action against ABUTH (herbicidal activity) [6] [%]	Pre-emergence action against ABUTH (herbicidal activity in percent) [6] [%]	Pre-emergence action against MATIN in % ([7]; dosage 20 g/ha) [%]	Pre-emergence action against MATIN in % ([7]; dosage 80 g/ha) [%]	Pre-emergence action against VIOTR in % [9] [%]	Post-emergence action against ABUTH in % ([10]; dosage 5 g/ha) [%]	Post-emergence action against ABUTH in % ([10]; dosage 20 g/ha) [%]	Post-emergence action at 20 g/ha against AMARE in % [11] [%]	Post-emergence action against MATIN in % [12] [%]	Pre-emergence action against ALOMY (herbicidal activity) [13] [%]	Pre-emergence action against DIGSA in % ([14]; dosage 80 g/ha) [%]	Post-emergence action against ECHCG in % ([15]; dosage 20 g/ha) [%]	Post-emergence action against ALOMY in % [16] [%]	Post-emergence action against STEME in % ([17]; 20 g/ha) [%]	Pre-emergence action against AMARE in % [18, 23] [%]	also measured
Cc1nnc(NC(=O)c2ccc(C(F)F)c(C(=O)NC3CC3)c2Cl)o1 [Example 6-124]	90	80	80	90	100	100	100	90	100	100	80	80	100	80	90	100	80	90	90	100	Pre-emergence action against ECHCG in % ([4]; 20 g/ha): 80%; Post-emergence action against SETVI in % ([5]; dosage 5 g/ha): 80%; Post-emergence action against SETVI in % ([5]; dosage 20 g/ha): 90%; Post-emergence action against VIOTR in % [8]: 100%; Post-emergence action against STEME in % ([17]; dosage 5 g/ha): 90%; Pre-emergence action against AMARE in % [18, 24]: 100%; Post-emergence action against DIGSA [19]: 90%; Pre-emergence action against SETVI in % ([20]; dosage 20 g/ha): 80%; Pre-emergence action against SETVI in % ([20]; dosage 80 g/ha): 100%
CCNC(=O)c1c(C(F)(F)F)ccc(C(=O)Nc2nnc(C)o2)c1Br [Example 6-159]	90	80	80	100	100	100	100	100	100	100	90	100	100	90	80	100	90	80	90	100	Pre-emergence action against POLCO in % [21]: 80%; Pre-emergence action against DIGSA in % ([14]; dosage 20 g/ha): 90%; Post-emergence action against ECHCG in % ([15]; dosage 5 g/ha): 80%; Pre-emergence action against AMARE in % [18, 24]: 100%; Post-emergence action against PHBPU in % [22]: 80%; Post-emergence action against DIGSA in % ([19]; 5 g/ha): 80%; Post-emergence action against DIGSA [19]: 90%; Pre-emergence action against SETVI in % ([20]; dosage 80 g/ha): 100%

Reference: US12655116B2, “Substituted isophthalic acid diamides” (Bayer Aktiengesellschaft, priority 2020, dated 2026)
